Test results from publication PMC8968665, “Verteporfin is a substrate-selective γ-secretase inhibitor that binds the amyloid precursor protein transmembrane domain” (The Journal of Biological Chemistry, 2022).
Entries after “also recorded” stand apart in the source; their conditions may differ.

How the values were obtained:
[1] = tested on: T1, C99; assay: Native ion mobility–mass spectrometry of C99–verteporfin mixtures; set-up: species or system human
T1 construct: the transmembrane 99 residue C-terminal (C99) domain; His tag (either the C-terminal hexa-His that is kept, or the N-terminal His of C99-NT2 removed by thrombin); made in house; host or cells: E. coli BL21DE3
Excerpt: IM-MS data were collected using a Synapt G2 HDMS IM-Q-ToF mass spectrometer (Waters), with a direct infusion nESI source set to positive ion mode. The instrument settings were tuned to generate intact C99–verteporfin complex ions while completely dissociating them from detergent LMPG micelles, including appropriately tuned settings for the sampling cone 80 V, trap cell accelerating potential 80 V, and the transfer cell accelerating potential 70 V. The trapping cell wave velocity and height were 116 m/s and 0.1 V, respectively. The IMS wave velocity and height were 250 m/s and 15 V, respectively. The transfer cell wave velocity and height were 300 m/s and 10 V. Prior to analysis, C99 in LMPG micelles at a protein concentration of 20 μM C99 and 100X CMC LMPG or DDMB samples were prepared by incubating 20 μM C99 with 100X CMC LMPG for 30 min, then titrating in DMSO or Verteporfin and incubating in the dark overnight. Verteporfin-binding buffer conditions were 200 mM Ammonium Acetate at pH 4.5.

[2] = molecular target: T2, γ-secretase cleavage of C100-Flag (C99) (Homo sapiens, UniProt P05067); assay: γ-Secretase IC50 measurement, Aβ40 sandwich ELISA; assay type: biochemical; conditions: 1 nM purified γ-secretase, 2 µM C100-Flag, 2 h, 37 °C, n=1, error of the fit; read-out: IC50, inhibition of Aβ40 production
T2 construct: C100 is C99 with an added N-terminal Met residue; made in house
Method: Purified γ-secretase was diluted in standard assay buffer to specified concentrations and incubated at 37 °C for 30 min, followed by the addition of stock solution of verteporfin in DMSO to achieve various final verteporfin concentrations and 2% final DMSO concentration. Purified C99 FLAG was then added to start the proteolytic reactions, which were incubated for 2 h at 37 °C. The concentrations of Aβ40 produced during the proteolysis of C100 FLAG by γ-secretase were determined using a specific sandwich ELISA (Invitrogen). Aβ40 concentrations were plotted as a function of verteporfin concentration, and the resultant sigmoidal curves were fitted to Equation 5 to determine IC50 values ([80], [83]).(5) Y=Min+(Max−Min)/1+(X/IC50)^HillCoefficient

[3] = 1D 1H NMR titration of empty LMPG micelles by verteporfin; conditions: empty 2.5% LMPG micelles, acyl chain methylene peak shifts, n = 1; read-out: KD, one verteporfin binding to one detergent micelle model
Excerpt: For this equation, Y is the total binding, Bmax is the maximum binding in the same units as Y, X is the added ligand in molar units, KD is the equilibrium dissociation constant in the same units as X. 1D NMR-binding curves were generated by directly inputting 1D chemical shift perturbations directly into the proper version of Equation 2. Peak height data, such as that quantified in Figures 4 and S4, were first generated using the peak-picking function in NMRFAM Sparky, and peak heights as a function of ligand concentration were used to generate a KD by addition into Equation 2.

[4] = tested on: T3, Notch-1 TM/JM (residues 1721–1771); assay: TROSY NMR titration of Notch-1 TM/JM by verteporfin; assay type: binding
T3 construct: flanked by its juxtamembrane segments (residues 1721–1771, “Notch-1 TM/JM”); made in house; host or cells: E. coli BL21DE3 Star, pET21b
Method: A Bruker Avance III 600 MHz NMR spectrometer equipped with a cryoprobe (CPTCI) and automated sample changer (SampleJet) was used to collect NMR spectra. Sample details are described above. For high-throughput screening data collection, the ^15N-^1H BEST-TROSY (b_trosy3gpph.2) experiment with 64 scans for each of 96 increments and a relaxation delay of 200 ms was run at 318 K for a total data acquisition time of 35 min per sample. To achieve enhanced signal-to-noise ratio, follow-up titrations and control experiments were conducted using the BEST-TROSY pulse program with 200 scans per 96 increments at 318 K, for a total data acquisition time of 110 min per sample. Data were processed using Bruker Topspin 3.6 using a Gaussian window function with a line broadening of -10 and a Gaussian max of 0.1 in both dimensions. NMR data were then further processed and analyzed using NMR-FAM SPARKY, plotted using GraphPad Prism 9, and prepared for publication figures using Affinity Designer.
2D ^15 N-^1H HSQC NMR data used to calculate dissociations constant (KD) values by first normalizing 2D data using the established formula ([78]) (Equation 1):(1) δ(1H,15N)=√(1/2[δ2H+.14∗δ2N]) Where δ(1H,15N) is the square root of linear chemical shifts in each respective dimension, δH and δN with the Nitrogen normalization factor of 0.14.

T2 sequence (P05067 672-770 limits assumed): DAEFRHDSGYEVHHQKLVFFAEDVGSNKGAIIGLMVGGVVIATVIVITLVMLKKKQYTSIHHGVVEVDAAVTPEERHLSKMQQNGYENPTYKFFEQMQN

Substance: verteporfin
- change in C99 oligomeric state (IM-MS) ([1]; LMPG and DDMB micelles, 0–50 μM verteporfin, low detergent conditions, n = 3): only a marginal increase in the population of dimeric C99; also recorded: does not undergo any significant change in oligomeric state
- covalent modification of C99 (mass by IM-MS) ([1]; samples kept in the dark): no covalent modification
- IC50 [2]: 15 ± 1 µM
- Kd [3]: 53 ± 21 µM
- binding to Notch-1 TM/JM ([4]; D6PC/DMPC bicelles): only minor spectral changes at very high concentrations; also recorded: does not bind
- binding to Notch-1 TM/JM ([4]; DDMB micelles): little change in the spectrum of Notch-1 until a concentration of 300 μM; also recorded: does not bind
- binding to Notch-1 TM/JM ([4]; LMPG micelles, same conditions as C99 titration): does not bind; also recorded: only minor perturbations of Notch resonances
- binding to Notch-1 transmembrane domain ([4]; general statement): did not bind; also recorded: not to bind
